Source: patent publication US9278958B2, “Anti-cancer compounds” (KATHOLIEKE UNIVERSITEIT LEUVEN, priority 2012, dated 2016)
Where two headings read alike, the source gives them in different places.

Columns and labels:
CEM cells = test: Cytostatic assay, CEM; assay type: cell-based; conditions: Homo sapiens, CCRF-CEM; Table 2; read-out: Cytostatic activity (μM) CEM
Method in brief: (§1)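 Read-out is the cell number after incubation, counted electronically (Coulter). Cultures started from 5-7.5×10^4 cells per well exposed to compound, kept 48 h to 96 h at 37° C under humidified CO2 control.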

Molt4/C8 cells = test: Cytostatic assay, Molt4/C8; assay type: cell-based; conditions: Table 2
Method in brief: as §1

Sup T1 cells = test: Cytostatic assay, Sup T1; assay type: cell-based; conditions: Homo sapiens, Table 2, read-out: Cytostatic activity (μM) Sup T 1
Method in brief: as §1

MT-2 cells = test: Cytostatic assay, MT-2; assay type: cell-based; conditions: Homo sapiens, MT2; Table 2
Method in brief: as §1

C8166 cells = test: Cytostatic assay, C8166; assay type: cell-based; conditions: Homo sapiens, Table 2
Method in brief: as §1

HUT-78 cells = test: Cytostatic assay, HUT-78; assay type: cell-based; conditions: Homo sapiens, HuT78; Table 2
Method in brief: as §1

MT-4 cells = test: Cytostatic assay, MT-4; assay type: cell-based; conditions: Homo sapiens, MT4; Table 2
Method in brief: as §1

[1] = test system: HL60, human leukemia cells; test: Cytostatic assay, HL-60; assay type: cell-based; conditions: Table 2
Method in brief: as §1

[2] = test system: U937, human monocytic cells; test: Cytostatic assay, U937; assay type: cell-based; conditions: U-937, Table 2
Method in brief: as §1

[3] = test system: THP-1, human monocytic cells; test: Cytostatic assay, THP-1; assay type: cell-based; conditions: Table 2
Method in brief: as §1

[4] = test system: Raji, human B-lymphoma cells; test: Cytostatic assay, Raji; assay type: cell-based; conditions: Table 2
Method in brief: as §1

[5] = test system: Daudi, human B-lymphoma cells; test: Cytostatic assay, Daudi; assay type: cell-based; conditions: Table 2
Procedure: (§2) To each well of a 96-well microtiter plate were added 5-7.5×10^4 cells and a given amount of the test compound. The cells were allowed to proliferate for 48 h to 96 h (depending on the nature of the cell line) at 37° C. in a humidified CO2-controlled atmosphere. At the end of the incubation period, the cells were counted in a Coulter Counter (Coulter Electronics Ltd, Harpenden Herts, United Kingdom).

[6] = test system: HOS CD4+ osteosarcoma cells; test: Cytostatic assay, HOS CD4+; assay type: cell-based; conditions: Homo sapiens; Table 3
Procedure: as §2

[7] = test system: OST TK- osteosarcoma cells; test: Cytostatic assay, OST TK-; assay type: cell-based; conditions: Homo sapiens; Table 3
Method in brief: as §1

[8] = test system: MCF-7 mammary carcinoma cells; test: Cytostatic assay, MCF-7; assay type: cell-based; conditions: Homo sapiens, MCF7; Table 3
Method in brief: as §1

[9] = test system: FM3A mammary carcinoma cells; test: Cytostatic assay, FM3A; assay type: cell-based, murine; conditions: Mus musculus, Table 3
Method in brief: as §1

[10] = test system: HeLa cervix carcinoma cells; test: Cytostatic assay, HeLa; assay type: cell-based, human; conditions: Homo sapiens; Table 3; read-out: Cytostatic activity (μM) Hela
Method in brief: as §1

[11] = test system: Caki-1 kidney carcinoma cells; test: Cytostatic assay, Caki-1; assay type: cell-based; conditions: Homo sapiens, Table 3
Method in brief: as §1

[12] = test system: Caki-2 kidney carcinoma cells; test: Cytostatic assay, Caki-2; assay type: cell-based; conditions: Homo sapiens, Table 3
Method in brief: as §1

[13] = test system: 293T embryonic kidney cells; test: Cytostatic assay, 293T; assay type: cell-based; conditions: Homo sapiens, HEK-293T; Table 3
Method in brief: as §1

[14] = test system: HT29 colorectal carcinoma cells; test: Cytostatic assay, HT29; assay type: cell-based; conditions: Homo sapiens, HT-29; Table 3
Method in brief: as §1

U87 glioma cells = test: Cytostatic assay, U87; assay type: cell-based; conditions: Homo sapiens, U-87 MG; Table 3
Method in brief: as §1

[15] = test system: U87 CD4+/CXCR4+/CCR5+ glioma cells; test: Cytostatic assay, U87 CD4+/CXCR4+/CCR5+; assay type: cell-based; conditions: Homo sapiens, Glioma cell; Table 3
Procedure: as §2

[16] = test system: HEL embryonic lung fibroblast cells; test: Cytostatic assay, HEL; assay type: cell-based; conditions: Homo sapiens, Table 3
Method in brief: as §1

[17] = test system: BAEC aortic endothelial cells; test: Cytostatic assay, BAEC; assay type: cell-based, bovine; conditions: Bos taurus, Table 3
Method in brief: as §1

[18] = test system: PC3 (rega) prostate cancer cells; test: Cytostatic assay, PC3 (rega); assay type: cell-based; conditions: Table 4
Method in brief: as §1

BPH-1 (UZ) = test: Cytostatic assay, BPH-1 (UZ); assay type: cell-based; conditions: Homo sapiens, Table 4
Method in brief: as §1

[19] = test system: DU145 (UZ) prostate cancer cells; test: Cytostatic assay, DU145 (UZ); assay type: cell-based; conditions: Homo sapiens, DU-145; Table 4
Method in brief: as §1

[20] = test system: PC-3 (UZ) prostate cancer cells; test: Cytostatic assay, PC-3 (UZ); assay type: cell-based; conditions: Table 4
Method in brief: as §1

[21] = test system: LNCaP (UZ) prostate cancer cells; test: Cytostatic assay, LNCaP (UZ); assay type: cell-based; conditions: Homo sapiens, Table 4
Method in brief: as §1

[22] = test system: PNT1A (UZ) prostate cells; test: Cytostatic assay, PNT1A (UZ); assay type: cell-based; conditions: Homo sapiens, Table 4
Method in brief: as §1

[23] = test system: 22Rv1 (UZ) prostate cancer cells; test: Cytostatic assay, 22Rv1 (UZ); assay type: cell-based; conditions: Homo sapiens, Table 4
Method in brief: as §1

PLC/PRF/5 hepatoma cells = test: Cytostatic assay, PLC/PRF/5; assay type: cell-based; conditions: Homo sapiens, Table 4
Method in brief: as §1

HepG2C3A hepatoma cells = test: Cytostatic assay, HepG2C3A; assay type: cell-based; conditions: Homo sapiens, HepG2/C3A; Table 4
Method in brief: as §1

Huh-7 hepatoma cells = test: Cytostatic assay, Huh-7; assay type: cell-based; conditions: Homo sapiens, Table 4
Method in brief: as §1

[24] = test system: DNA synthesis in CEM cells; test: Antimetabolic activity assay, [CH3-3H]dThd incorporation (DNA synthesis), CEM; assay type: cell-based; conditions: Homo sapiens, CCRF-CEM, incorporation into TCA-insoluble material
Procedure: (§3) Radiolabeled precursors of DNA synthesis ([^3H-methyl]dThd), RNA synthesis ([5-^3H]Urd), and protein synthesis ([4,5-^3H]leu) were added to 10^5 CEM cell cultures in the 200 μl-wells of a microtiter plate at 1 μCi for each precursor in the presence of varying concentrations of the test compounds (5-fold dilution series). The cells were allowed to proliferate for 20 hrs at 37° C. in a humidified, CO2-controlled atmosphere. At the end of the incubation period, the contents of the wells were brought onto 25-mm glass fiber filters and further processed for measurement of acid-insoluble radioactivity.

[25] = test system: DNA synthesis in Raji cells; test: Antimetabolic activity assay, [CH3-3H]dThd incorporation (DNA synthesis), Raji; assay type: cell-based; conditions: Homo sapiens, incorporation into TCA-insoluble material
Procedure: [The procedure below names another cell line; the source lists this cell line under the same test.] as §3

[26] = test system: RNA synthesis in CEM cells; test: Antimetabolic activity assay, [5-3H]uridine incorporation (RNA synthesis), CEM; assay type: cell-based; conditions: Homo sapiens, CCRF-CEM, incorporation into TCA-insoluble material
Procedure: as §3

[27] = test system: RNA synthesis in Raji cells; test: Antimetabolic activity assay, [5-3H]uridine incorporation (RNA synthesis), Raji; assay type: cell-based; conditions: Homo sapiens, incorporation into TCA-insoluble material
Procedure: [The procedure below names another cell line; the source lists this cell line under the same test.] as §3

[28] = test system: protein synthesis in CEM cells; test: Antimetabolic activity assay, [4,5-3H]leucine incorporation (protein synthesis), CEM; assay type: cell-based; conditions: Homo sapiens, CCRF-CEM, incorporation into TCA-insoluble material
Procedure: as §3

[29] = test system: protein synthesis in Raji cells; test: Antimetabolic activity assay, [4,5-3H]leucine incorporation (protein synthesis), Raji; assay type: cell-based; conditions: Homo sapiens, incorporation into TCA-insoluble material
Procedure: [The procedure below names another cell line; the source lists this cell line under the same test.] as §3

[30] = test system: broad variety of tumor cell lines; test: Cytostatic assays, summary over the panel of cell lines (Tables 2-4); assay type: cell-based
Procedure: as §2

Structure (SMILES): CCOC(=O)c1cc(CCc2ccc(OC)cc2)sc1N [TR532, 2-Amino-5-[2-(4-methoxy-phenyl)-ethyl]-thiophene-3-carboxylic acid ethyl ester]
- IC50 (CEM cells): 1.9 ± 0.99 µM
- IC50 (Molt4/C8 cells): 0.34 µM
- IC50 (Sup T1 cells): 1.5 ± 0.071 µM
- IC50 (MT-2 cells): 1.7 ± 0.14 µM
- IC50 (C8166 cells): 3.4 ± 0.071 µM
- IC50 (HUT-78 cells): 22 ± 9.2 µM
- IC50 (MT-4 cells): 8.5 ± 0.92 µM
- IC50 [1]: 7 ± 8.7 µM
- IC50 [2]: 43 ± 1.4 µM
- IC50 [3]: 23 ± 3.5 µM
- IC50 [4]: 39 ± 2.8 µM
- IC50 [5]: 43 ± 2.1 µM
- IC50 [6]: 25 ± 5.7 µM
- IC50 [7]: 5.4 ± 3.3 µM
- IC50 [8]: 36 ± 5.7 µM
- IC50 [9]: 46 ± 6 µM
- IC50 [10]: 39 µM
- IC50 [11]: 4.6 ± 2.1 µM
- IC50 [12]: 66 ± 37 µM
- IC50 [13]: 41 ± 0.71 µM
- IC50 [14]: 27 ± 13 µM
- IC50 (U87 glioma cells): 38 ± 1.4 µM
- IC50 [15]: 37 ± 9.9 µM
- IC50 [16]: 20 ± 8.5 µM
- IC50 [17]: 23 ± 0.71 µM
- IC50 [18]: 0.67 ± 0.14 µM
- IC50 (BPH-1 (UZ)): 43 ± 2.8 µM
- IC50 [19]: 8.4 ± 1.6 µM
- IC50 [20]: 1.1 ± 0.49 µM
- IC50 [21]: 0.34 ± 0.05 µM
- IC50 [22]: 37 ± 9.9 µM
- IC50 [23]: 15 ± 7.9 µM
- IC50 (PLC/PRF/5 hepatoma cells): 24 ± 2.1 µM
- IC50 (HepG2C3A hepatoma cells): 6.7 ± 0.35 µM
- IC50 (Huh-7 hepatoma cells): 1.6 ± 0.14 µM
- IC50 [24]: 11 ± 4 µM
- IC50 [25]: > 100 µM
- IC50 [26]: 3 ± 0.1 µM
- IC50 [27]: > 100 µM
- IC50 [28]: 1.6 ± 1.1 µM
- IC50 [29]: ≥ 100 µM
- IC50 ([30]; Homo sapiens, HuT78, range for the seven compounds, MT-4 and HUT-78 cells, read-out: IC50 range, cytostatic activity against MT-4 and HUT-78 cells): 8.5 to 60 µM
- IC50 ([30]; range for the seven compounds against the 5 tumor cell lines, read-out: IC50 range, cytostatic activity against CEM, Molt4/C8, Sup T1, MT-2 and C8166 cells): 0.22 to 3.4 µM
